Source: PubChem BioAssay (NCI)
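How tested: cells in 96-well plates exposed to compound for 48 hours at five concentrations. The concentration for 50% growth inhibition is given as GI50. TGI: total growth inhibition.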

Columns and labels:
Assay in all cases: growth of human tumour cells (NCI), 48 h
M14 melanoma = test system: M14 melanoma
SNB-19 CNS = test system: SNB-19 CNS
OVCAR-4 ovarian = test system: OVCAR-4 ovarian
786-0 renal = test system: 786-0 renal
COLO 205 colon = test system: COLO 205 colon
DU-145 prostate = test system: DU-145 prostate
SK-MEL-5 melanoma = test system: SK-MEL-5 melanoma
UACC-62 melanoma = test system: UACC-62 melanoma
SF-539 CNS = test system: SF-539 CNS
HT29 colon = test system: HT29 colon
ACHN renal = test system: ACHN renal
U251 CNS = test system: U251 CNS
OVCAR-3 ovarian = test system: OVCAR-3 ovarian
IGROV1 ovarian = test system: IGROV1 ovarian
MCF7 breast = test system: MCF7 breast
NCI-H522 lung = test system: NCI-H522 lung
SK-OV-3 ovarian = test system: SK-OV-3 ovarian
SK-MEL-2 melanoma = test system: SK-MEL-2 melanoma
OVCAR-5 ovarian = test system: OVCAR-5 ovarian
SF-268 CNS = test system: SF-268 CNS
NCI-H23 lung = test system: NCI-H23 lung
CCRF-CEM leukemia = test system: CCRF-CEM leukemia
MDA-MB-231 breast = test system: MDA-MB-231 breast
HOP-92 NSCLC = test system: HOP-92 NSCLC
LOX IMVI melanoma = test system: LOX IMVI melanoma
MDA-MB-435 = test system: MDA-MB-435
K-562 leukemia = test system: K-562 leukemia
NCI/ADR-RES ovarian = test system: NCI/ADR-RES ovarian
KM12 colon = test system: KM12 colon

Cc1ccc(C2C3Cc4ccccc4C3=NN2c2ccc(S(=O)(=O)NC(=O)NC3CCCCC3)cc2)cc1 (configuration not stated)
GI50 (M14 melanoma): 33.5 µM | TGI (M14 melanoma): > 100 µM | GI50 (SNB-19 CNS): 21.3 µM | TGI (SNB-19 CNS): 64 µM | GI50 (OVCAR-4 ovarian): 16.6 µM | TGI (OVCAR-4 ovarian): 39.2 µM | GI50 (786-0 renal): 28.6 µM | TGI (786-0 renal): > 100 µM | GI50 (COLO 205 colon): 14.7 µM | TGI (COLO 205 colon): 33.1 µM | GI50 (DU-145 prostate): 23.1 µM | TGI (DU-145 prostate): 78.9 µM | GI50 (SK-MEL-5 melanoma): 14.5 µM | TGI (SK-MEL-5 melanoma): 30.3 µM | GI50 (UACC-62 melanoma): 12.7 µM | TGI (UACC-62 melanoma): 28.6 µM | GI50 (SF-539 CNS): 20.2 µM | TGI (SF-539 CNS): 40.7 µM | GI50 (HT29 colon): 24.5 µM | TGI (HT29 colon): > 100 µM | GI50 (ACHN renal): 14.4 µM | TGI (ACHN renal): 28.5 µM | GI50 (U251 CNS): 13.2 µM | TGI (U251 CNS): 30.4 µM | GI50 (OVCAR-3 ovarian): 15 µM | TGI (OVCAR-3 ovarian): 37.1 µM | GI50 (IGROV1 ovarian): 5.75 µM | TGI (IGROV1 ovarian): 24.5 µM | GI50 (MCF7 breast): 13.5 µM | TGI (MCF7 breast): > 100 µM | GI50 (NCI-H522 lung): 5.92 µM | TGI (NCI-H522 lung): 23.5 µM | GI50 (SK-OV-3 ovarian): 20.4 µM | TGI (SK-OV-3 ovarian): 61.3 µM | GI50 (SK-MEL-2 melanoma): 18.6 µM | TGI (SK-MEL-2 melanoma): 38.6 µM | GI50 (OVCAR-5 ovarian): 27.3 µM | TGI (OVCAR-5 ovarian): 55.7 µM | GI50 (SF-268 CNS): 25.3 µM | TGI (SF-268 CNS): > 100 µM | GI50 (NCI-H23 lung): 15.2 µM | TGI (NCI-H23 lung): 37.1 µM | GI50 (CCRF-CEM leukemia): 8.33 µM | TGI (CCRF-CEM leukemia): 76.4 µM | GI50 (MDA-MB-231 breast): 28.2 µM | TGI (MDA-MB-231 breast): > 100 µM | GI50 (HOP-92 NSCLC): 11.6 µM | TGI (HOP-92 NSCLC): 27.6 µM | GI50 (LOX IMVI melanoma): 17.8 µM | TGI (LOX IMVI melanoma): 44.2 µM | GI50 (MDA-MB-435): 14.6 µM | TGI (MDA-MB-435): 41.3 µM | GI50 (K-562 leukemia): 11.5 µM | TGI (K-562 leukemia): 52.3 µM | GI50 (NCI/ADR-RES ovarian): 13.4 µM | TGI (NCI/ADR-RES ovarian): 35.1 µM | GI50 (KM12 colon): 11.3 µM
